Where “and” joins values, the source holds several entries; their conditions need not be identical. Equal values may be shown once.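 Cultured in 96-well plates, cells were exposed to test compound for 48 hours across five concentrations. GI50: concentration for 50% inhibition of growth.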 Calls of active or inactive are those of the source. No stated cut-off is given here; in the data, active = GI50 up to about 1.1 µM and inactive = higher.
How the values were obtained:
Assay in all cases: inhibition of tumour cell growth, NCI panel, 48 h
A549 = system: A549
SF-295 = system: SF-295
SK-MEL-5 = system: SK-MEL-5
CCRF-CEM = system: CCRF-CEM
RXF 393 = system: RXF 393
OVCAR-8 = system: OVCAR-8
K562 = system: K562
UACC-62 = system: UACC-62
OVCAR-4 = system: OVCAR-4
HT-29 = system: HT-29
KM12 = system: KM12
IGROV-1 = system: IGROV-1
SW-620 = system: SW-620
HCT-116 = system: HCT-116
M14 = system: M14
SK-OV-3 = system: SK-OV-3
MDA-MB-231 = system: MDA-MB-231
NCI/ADR-RES = system: NCI/ADR-RES
MDA-MB-435 = system: MDA-MB-435

| SMILES | GI50 (A549) | GI50 (SF-295) | GI50 (SK-MEL-5) | GI50 (CCRF-CEM) | GI50 (RXF 393) | GI50 (OVCAR-8) | GI50 (K562) | GI50 (UACC-62) | GI50 (OVCAR-4) | GI50 (HT-29) | GI50 (KM12) | GI50 (IGROV-1) | GI50 (SW-620) | GI50 (HCT-116) | GI50 (M14) | GI50 (SK-OV-3) | GI50 (MDA-MB-231) | GI50 (NCI/ADR-RES) | GI50 (MDA-MB-435) |
| --- | --- | --- | --- | --- | --- | --- | --- | --- | --- | --- | --- | --- | --- | --- | --- | --- | --- | --- | --- |
| Cc1cc(C)cc(NC(N)=S)c1 | > 100 µM (inactive) | > 100 µM (inactive) | > 100 µM (inactive) | 19.1 µM (inactive) | 20.2 µM (inactive) | > 100 µM (inactive) | > 100 µM (inactive) | > 100 µM (inactive) | > 100 µM (inactive) | 40.9 µM (inactive) | > 100 µM (inactive) | > 100 µM (inactive) | 4.06 µM (inactive) | 35.5 µM (inactive) | > 100 µM (inactive) |  |  |  |  |
| O=S(=O)(O)c1cc(O)c2c(O)c(/N=N/c3ccc(/C=C/c4ccc(/N=N/c5c(S(=O)(=O)O)cc6cc(S(=O)(=O)O)cc(O)c6c5O)cc4S(=O)(=O)O)c(S(=O)(=O)O)c3)c(S(=O)(=O)O)cc2c1 | > 100 µM (inactive) | > 100 µM (inactive) | > 100 µM (inactive) | > 100 µM (inactive) | > 100 µM (inactive) | > 100 µM (inactive) | > 100 µM (inactive) | > 100 µM (inactive) | > 100 µM (inactive) | > 100 µM (inactive) | 32.5 µM (inactive) | > 100 µM (inactive) | > 100 µM (inactive) | > 100 µM (inactive) | > 100 µM (inactive) | > 100 µM (inactive) |  |  |  |
| CC12c3ccccc3C(OC=O)(c3ccccc31)C1(C)c3ccccc3C2(OC=O)c2ccccc21 | > 100 µM (inactive) | > 100 µM (inactive) | > 100 µM (inactive) | 36.6 µM (inactive) | > 100 µM (inactive) | > 100 µM (inactive) | > 100 µM (inactive) | > 100 µM (inactive) | > 100 µM (inactive) | > 100 µM (inactive) | > 100 µM (inactive) | > 100 µM (inactive) | > 100 µM (inactive) | > 100 µM (inactive) | > 100 µM (inactive) | > 100 µM (inactive) |  |  |  |
| c1ccc(C2Nc3ccccc3C3OCCCC23)cc1 (stereo not given) | 20.5 µM (inactive) | 16.6 µM (inactive) | 5.06 µM (inactive) | 20.2 µM (inactive) | 18.7 µM (inactive) | 17.5 µM (inactive) | 14.6 µM (inactive) | 11.6 µM (inactive) | 47.3 µM (inactive) | > 10 µM (inactive) | 25.1 µM (inactive) | 11.8 µM (inactive) | 26 µM (inactive) | 17.6 µM (inactive) |  |  |  |  |  |
| O=S(=O)(c1ccccc1)C1(C2(S(=O)(=O)c3ccccc3)CCN=N2)CCN=N1 (stereo not given) | > 100 µM (inactive) | > 100 µM (inactive) |  | > 100 µM (inactive) | > 100 µM (inactive) | > 100 µM (inactive) | > 100 µM (inactive) |  | > 100 µM (inactive) | > 100 µM (inactive) | > 100 µM (inactive) | > 100 µM (inactive) | > 100 µM (inactive) | > 100 µM (inactive) | > 100 µM (inactive) | > 100 µM (inactive) |  |  |  |
| Cc1ccc(/C=N/NS(=O)(=O)c2ccccc2)c(C)c1 | > 100 µM (inactive) | > 100 µM (inactive) | > 100 µM (inactive) | 78.9 µM (inactive) | > 100 µM (inactive) | > 100 µM (inactive) | > 100 µM (inactive) | > 100 µM (inactive) | > 100 µM (inactive) | > 100 µM (inactive) | > 100 µM (inactive) | > 100 µM (inactive) | > 100 µM (inactive) | > 100 µM (inactive) | > 100 µM (inactive) | > 100 µM (inactive) |  |  |  |
| CCOC(=O)C(Cc1ccc([N+](=O)[O-])cc1)NC(=O)CC1c2ccccc2-c2ccccc21 (stereo not given) | 81.8 µM (inactive) | 51.5 µM (inactive) |  | > 100 µM (inactive) | 18 µM (inactive) | 63.8 µM (inactive) | > 100 µM (inactive) | > 100 µM (inactive) | 55 µM (inactive) | > 100 µM (inactive) | > 100 µM (inactive) | > 100 µM (inactive) | > 100 µM (inactive) | > 100 µM (inactive) | 22.9 µM (inactive) | 78.7 µM (inactive) |  |  |  |
| CC1CN(c2ccc(Cl)cc2)CC(C)(C)OC(=O)O1 (stereo not given) | > 100 µM (inactive) | > 100 µM (inactive) | > 100 µM (inactive) | > 100 µM (inactive) | > 100 µM (inactive) | > 100 µM (inactive) | > 100 µM (inactive) | > 100 µM (inactive) | > 100 µM (inactive) | > 100 µM (inactive) | > 100 µM (inactive) | > 100 µM (inactive) | > 100 µM (inactive) | > 100 µM (inactive) | > 100 µM (inactive) | > 100 µM (inactive) |  |  |  |
| CCOC(=O)CCC1(C(=O)OC)CCCC1=O (stereo not given) | > 100 µM (inactive) | > 100 µM (inactive) | > 100 µM (inactive) | > 10 µM (inactive) | > 100 µM (inactive) | > 100 µM (inactive) | > 100 µM (inactive) |  |  | > 100 µM (inactive) | > 100 µM (inactive) | > 100 µM (inactive) | > 100 µM (inactive) | > 100 µM (inactive) |  | > 100 µM (inactive) |  |  |  |
| CCC(C)NC1=C(NC(C)=O)C(=O)c2ccccc2C1=O (stereo not given) | > 75 µM (inactive) | > 75 µM (inactive) | > 75 µM (inactive) | 21.8 µM (inactive) | > 75 µM (inactive) | > 75 µM (inactive) | 43.9 µM (inactive) | > 75 µM (inactive) | > 75 µM (inactive) | 54.1 µM (inactive) | > 75 µM (inactive) | > 75 µM (inactive) | 22.5 µM (inactive) | > 75 µM (inactive) | > 75 µM (inactive) | > 75 µM (inactive) |  |  |  |
| OC1c2ccccc2C2(O)C1C(c1ccccc1)C(c1ccccc1)C2(O)c1ccccc1 (stereo not given) | 11.4 µM (inactive) | 6.52 µM (inactive) | 7.13 µM (inactive) | 8.18 µM (inactive) | 16 µM (inactive) | 12.6 µM (inactive) | 5.71 µM (inactive) | 10.4 µM (inactive) | 19.5 µM (inactive) | 9.86 µM (inactive) | 10.6 µM (inactive) | 18.2 µM (inactive) | 15.8 µM (inactive) |  | 13.7 µM (inactive) | 22.2 µM (inactive) |  |  |  |
| CC(C)(c1ccccc1)c1ccc(Oc2ccc(C#N)c(C#N)c2)cc1 | 27 µM (inactive) | 4.47 µM (inactive) | 20.7 µM (inactive) | 56.5 µM (inactive) | 92.9 µM (inactive) | > 10 µM (inactive) | 15 µM (inactive) | > 10 µM (inactive) | 7.82 µM (inactive) | > 10 µM (inactive) | > 10 µM (inactive) | > 10 µM (inactive) | > 100 µM (inactive) | 36.6 µM (inactive) | 71.8 µM (inactive) | > 10 µM (inactive) |  |  |  |
| O=C1C2C3CCC(C2C(=O)N1CO)C1C2C(=O)N(CO)C(=O)C2C31 (stereo not given) | 31 µM (inactive) | > 64.9 µM (inactive) | 43.4 µM (inactive) | 19.1 µM (inactive) | > 46.9 µM (inactive) | 32.4 µM (inactive) | 35.2 µM (inactive) | 53.1 µM (inactive) | > 43.9 µM (inactive) | 58.7 µM (inactive) | > 89.3 µM (inactive) | > 76 µM (inactive) | 26.2 µM (inactive) | 28.2 µM (inactive) | > 66.7 µM (inactive) | > 100 µM (inactive) |  |  |  |
| CN1C(=O)C(O)CC1c1ccccc1F (stereo not given) | > 100 µM (inactive) | > 100 µM (inactive) | > 100 µM (inactive) | > 100 µM (inactive) | > 100 µM (inactive) | > 100 µM (inactive) | > 100 µM (inactive) | > 100 µM (inactive) | > 100 µM (inactive) | > 100 µM (inactive) | > 100 µM (inactive) | > 100 µM (inactive) | > 100 µM (inactive) | > 100 µM (inactive) | > 100 µM (inactive) |  | > 100 µM (inactive) | > 100 µM (inactive) | > 100 µM (inactive) |
| COc1cc(C2c3cc4c(cc3[C@@H](Nc3ccc(F)cc3)C3COC(=O)[C@H]23)OCO4)cc(OC)c1O (stereo not given in full) | 0.224 µM (active) | 0.834 µM (active) | 1.78 µM (inactive) |  | 3.12 µM (inactive) | 2.53 µM (inactive) | 3.87 µM (inactive) | 0.841 µM (active) | 15.1 µM (inactive) | 3.41 µM (inactive) | 3.77 µM (inactive) | 5.31 µM (inactive) | 1.69 µM (inactive) | 2.77 µM (inactive) | 2.56 µM (inactive) | 3.45 µM (inactive) | 4.33 µM (inactive) | 3.97 µM (inactive) | 4.17 µM (inactive) |
| Cc1cn(Cc2ccccc2CCO)c(=S)[nH]c1=O | > 100 µM (inactive) | > 100 µM (inactive) | > 100 µM (inactive) | > 100 µM (inactive) | > 100 µM (inactive) | > 100 µM (inactive) | > 100 µM (inactive) | > 100 µM (inactive) | > 100 µM (inactive) | > 100 µM (inactive) | > 100 µM (inactive) | > 100 µM (inactive) | > 100 µM (inactive) |  | > 100 µM (inactive) | > 100 µM (inactive) |  |  |  |
| O=C1c2ccccc2-c2c3c(cc4ccnc1c24)OCO3 [LIRIODENINE] | 3.48 µM (inactive) and 3.47 µM (inactive) | 6.12 µM (inactive) and 4.86 µM (inactive) | 2.84 µM (inactive) | 4.1 µM (inactive) and 2.7 µM (inactive) | 5.55 µM (inactive) and 5.06 µM (inactive) | 4.04 µM (inactive) and 5.14 µM (inactive) | 3.42 µM (inactive) and 4.29 µM (inactive) | 4.57 µM (inactive) and 2.77 µM (inactive) | 5.07 µM (inactive) and 8.24 µM (inactive) | 4.95 µM (inactive) and 4.06 µM (inactive) | 6.44 µM (inactive) and 6.5 µM (inactive) | 5.97 µM (inactive) and 3.9 µM (inactive) | 4.92 µM (inactive) and 3.82 µM (inactive) | 3.29 µM (inactive) and 3.17 µM (inactive) | 7.53 µM (inactive) and 6.71 µM (inactive) | 22.2 µM (inactive) and 17.9 µM (inactive) |  |  |  |
